# From publication PMC11192437, “Molecular and structural basis of oligopeptide recognition by the Ami transporter system in pneumococci” (PLOS Pathogens, 2024)
# Assays:
# [1] = molecular target: AliC (residues 24–655), oligopeptide-binding lipoprotein of the Ami system, without the lipobox segment (Streptococcus pneumoniae); assay: crystal structure; AliC in the open conformation, no peptide; 0.1 M Bis-Tris pH 6.5, 25% PEG3350; 2.38 Å; domain-swapped dimer
# [2] = molecular target: AliC (residues 24–655), oligopeptide-binding lipoprotein of the Ami system, without the lipobox segment (Streptococcus pneumoniae); assay: AUC; sedimentation velocity, 20 mM Tris–HCl pH 7.5, 20°C, 4.1 μM protein, c(s) distribution (SEDFIT)
# AliD [3] = conditions: peptide derived from Prevotella species; cited from earlier work
# AliD [4] = assay: Microscale thermophoresis (MST) peptide binding to AliD; parameters: species or system Streptococcus pneumoniae; conditions: 20 nM RED-NHS-labeled AliD, peptide 7.63x10^-6–0.125 mM in PBS, 25°C
# Method: To investigate the conformational changes occurring in the Ami permease OBPs upon ligand binding, we synthesized specific peptides (Tables 1 and S2) previously reported to be substrates of these proteins. […] To verify specific binding of peptides to OBPs, binding of peptide 1 (FPPQSV), which is the natural substrate of AliD, and peptide 2 (AIQSEKARKHN) was measured to AliD by microscale thermophoresis (MST) (see methods). […] The crystal structure of the AliD:peptide 1 complex was obtained by co-crystallization (see Materials and Methods) at 2.18 Å resolution (Fig 3A).
# Binding of peptides to heterologously expressed AliD was measured by microscale thermophoresis (MST). […] Analyzed peptides (1: FPPQSV and 2: AIQSEKARKHN) were diluted in PBS. […] Samples were loaded into standard capillaries (NanoTemper Technologies) and measured using the Monolith NT.115 machine (NanoTemper Technologies). […] Data of three independently conducted experiments were analyzed using the Mo.Affinity Analysis software version 2.3 from NanoTemper Technologies.
# Supplementary file ppat.1011883.s017.tif: S6 Fig Peptide 1 structure in the AliD:peptide 1 complex. (A) Binding of peptide 1 and 2 to heterologously expressed AliD as analyzed by microscale thermophoresis (MST). […] Samples were measured using the Monolith NT.115 (NanoTemper Technologies) at 40% LED power and medium MST power at 25° C. […]
# AliD [5] = conditions: peptide derived from Prevotella species; cited from earlier work; remark: listed apart in the source
# AliB = conditions: S2 Table; previously reported to bind AliB; ref 10 (table adapted from Nasher et al; 2018); cited from earlier work
# Source text: Supplement ppat.1011883.s002.docx, table 1 | column: OBP
# [6] = molecular target: AliD (residues 28–652), oligopeptide-binding lipoprotein of the Ami system, without the lipobox segment (Streptococcus pneumoniae); assay: MST; 20 nM RED-NHS-labelled AliD and unlabelled peptides (7.63x10^-6–0.125 mM) both in solution, PBS, 25°C, 40% LED power, medium MST power, Monolith NT.115; three independent experiments
molecule,measurement,setting,value
"AliC (residues 24–655), oligopeptide-binding lipoprotein of the Ami system, without the lipobox segment (natural protein)",stoichiometry N,[1],2
same,stoichiometry N,[2],2
"FPPQSV [Peptide 1, FPPQSV; Ribosome-associated GTPase EngA (Prevotella species)]",Gene expression change when bound by AliD,AliD [3],significant changes in gene expression
same,Binding to AliD (in words),AliD [4],concentration dependent binding
same,Colonization when bound by AliD,AliD [5],enhanced colonization
"PIVGGHEGAGV [Peptide 3, …; NDMA-dependent alcohol dehydrogenase (multispecies)]",Corresponding OBP,AliB,AliB
Peptide 1 (FPPQSV),Kd,[6],3.44 µM
"VMVKGPGPGREST [Peptide 4, …; 30S ribosomal protein S11 (multispecies)]",Corresponding OBP,AliB,AliB
AIQSEKARKHN [Peptide 2 (…)],Kd,[6],14.4 µM
